The subject of data set [1] is SF9 cells. Briefly: Cell lysis, percent cell viability by Vi-Cell (trypan blue exclusion). In kind it is cell-based, insect. To be noted: SF9, 1 hour incubation.
Procedure: The cell rupture solution was tested both for HEK 293 and SF9 cell lines. The cell concentration was >5×10^6 cells/ml. A cell harvest in cell culture media was spiked with the concentrated stock of cell rupture solution to reach a final cell rupture solution concentration ranging from 0% to 0.5% and was incubated for about 5 minutes to about 1 hour at 15° C. to 30° C. The concentration of the stock solution could be 1-500-fold higher than the target concentration. After the incubation period, cell viability of cells was analyzed by a Vi-Cell reader.
SF9 cells for the study were grown in SF-900 II SFM (Invitrogen/Gibco 10902) media in a non-vented non-baffled shake flask. The incubator was set at 27° C. and 125 rpm.
For the cell lysis study, 2 mL of cells were added to each of 10×15 mL tubes under a sterile biosafety cabinet. Each tube was spiked with 0% (control, no detergent), 0.0025%, 0.005%, 0.0075%, 0.01%, 0.02%, 0.05%, 0.1%, 0.25%, and 0.5% of cell rupture solution using a concentrated stock. Cell counts and percent cell viability were determined at 15 min, 30 min, and 1 hour time points for each sample using the ViCell cell viability analyzer.
Cell viability was assessed by a Vi-Cell XR using trypan blue exclusion staining. […]
For data set [2] the following is noted: reference [6]; cited from earlier work.
For data set [3], the system named is HEK 293 cells. Conditions: HEK 293, 1 hour incubation.

Regarding Octoxynol-9 [Triton X-100], the “detergent concentration at which cell lysis was complete” value in data set [1] and in data set [3] was 0.05% in each case. The “toxicity reported by research” value in data set [2] is “acute oral toxicity, eye damage, skin irritation, and chronic aquatic toxicity”.

The values above are taken from US20250197794A1, “MEMBRANE RUPTURE COMPOSITIONS AND METHODS OF MAKING AND USING SAME” (priority 2020, published 2025).
